# Assay results taken from PubChem BioAssay AID1963422 (Molecular Pharmacology Branch, DTP, NCI, 2024).
# System: 463943-066-T-J2-PDC complex spheroid growth
# Experiment: Anticancer human tumor 463943-066-T-J2-PDC patient-derived colon adenocarcinoma cell line growth inhibition [Asc]
# Conditions: for IC50: curve of first compound; for viability, T/C: stronger effect = lower value
# Procedure, shortened: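 Stromal components (HUVEC and hMSC) are co-assembled with the cancer cells into multicellular spheroids. Drugs are then added singly or paired, at concentrations falling by half-log increments from a clinically achievable maximum, capped at 10 microM without known Cmax.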
# 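Note: compound exposure lasted 7 days.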
# 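Throughout, for viability, T/C: 100% = DMSO vehicle control wells.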
structure (smiles),measurement,setting,value
NC(=O)C(=Cn1cnc(-c2cc(C(F)(F)F)cc(C(F)(F)F)c2)n1)c1cncnc1 + Cc1c(S(C)(=O)=O)c(-c2cc(F)cc(N3CCN(c4ccc(NS(=O)(=O)c5ccc(NC(CCN6CCC(C(=O)OCCCP(=O)(O)O)CC6)CSc6ccccc6)c(S(=O)(=O)C(F)(F)F)c5)cc4)CC3)c2)c(-c2ccc(Cl)cc2)n1C(C)C,IC50,second compound 0.0316 µM,> 300 nM
same,IC50,second compound 0.1 µM,> 300 nM
same,IC50,second compound 0.316 µM,> 300 nM
same,IC50,second compound 1 µM,> 300 nM
same,IC50,second compound 3.16 µM,> 300 nM
same,IC50,second compound 10 µM,0.949 nM
same,"viability, T/C","second compound 0.0316 µM, first compound 0.000949 µM",96.5%
same,"viability, T/C","second compound 0.0316 µM, first compound 0.003 µM",97%
same,"viability, T/C","second compound 0.0316 µM, first compound 0.00949 µM",84.1%
same,"viability, T/C","second compound 0.0316 µM, first compound 0.03 µM",89.1%
same,"viability, T/C","second compound 0.0316 µM, first compound 0.0949 µM",86%
same,"viability, T/C","second compound 0.0316 µM, first compound 0.3 µM",72.3%
same,"viability, T/C","second compound 0.1 µM, first compound 0.000949 µM",93.9%
same,"viability, T/C","second compound 0.1 µM, first compound 0.003 µM",88.4%
same,"viability, T/C","second compound 0.1 µM, first compound 0.00949 µM",84.4%
same,"viability, T/C","second compound 0.1 µM, first compound 0.03 µM",80.7%
same,"viability, T/C","second compound 0.1 µM, first compound 0.0949 µM",81.8%
same,"viability, T/C","second compound 0.1 µM, first compound 0.3 µM",69.5%
same,"viability, T/C","second compound 0.316 µM, first compound 0.000949 µM",83.5%
same,"viability, T/C","second compound 0.316 µM, first compound 0.003 µM",90.7%
same,"viability, T/C","second compound 0.316 µM, first compound 0.00949 µM",75.2%
same,"viability, T/C","second compound 0.316 µM, first compound 0.03 µM",78.8%
same,"viability, T/C","second compound 0.316 µM, first compound 0.0949 µM",72%
same,"viability, T/C","second compound 0.316 µM, first compound 0.3 µM",71.3%
same,"viability, T/C","second compound 1 µM, first compound 0.000949 µM",78.9%
same,"viability, T/C","second compound 1 µM, first compound 0.003 µM",75.2%
same,"viability, T/C","second compound 1 µM, first compound 0.00949 µM",68.8%
same,"viability, T/C","second compound 1 µM, first compound 0.03 µM",72%
same,"viability, T/C","second compound 1 µM, first compound 0.0949 µM",72.7%
same,"viability, T/C","second compound 1 µM, first compound 0.3 µM",61%
same,"viability, T/C","second compound 3.16 µM, first compound 0.000949 µM",61.2%
same,"viability, T/C","second compound 3.16 µM, first compound 0.003 µM",59.6%
same,"viability, T/C","second compound 3.16 µM, first compound 0.00949 µM",57.6%
same,"viability, T/C","second compound 3.16 µM, first compound 0.03 µM",58.8%
same,"viability, T/C","second compound 3.16 µM, first compound 0.0949 µM",55.7%
same,"viability, T/C","second compound 3.16 µM, first compound 0.3 µM",49.6%
same,"viability, T/C","second compound 10 µM, first compound 0.000949 µM",50.1%
same,"viability, T/C","second compound 10 µM, first compound 0.003 µM",45.6%
same,"viability, T/C","second compound 10 µM, first compound 0.00949 µM",48.6%
same,"viability, T/C","second compound 10 µM, first compound 0.03 µM",44%
same,"viability, T/C","second compound 10 µM, first compound 0.0949 µM",52%
same,"viability, T/C","second compound 10 µM, first compound 0.3 µM",36.2%
NC1CCC(NC2CC2c2ccccc2)CC1 (centres undefined) + Cc1c(S(C)(=O)=O)c(-c2cc(F)cc(N3CCN(c4ccc(NS(=O)(=O)c5ccc(NC(CCN6CCC(C(=O)OCCCP(=O)(O)O)CC6)CSc6ccccc6)c(S(=O)(=O)C(F)(F)F)c5)cc4)CC3)c2)c(-c2ccc(Cl)cc2)n1C(C)C,IC50,second compound 0.0316 µM,> 100 nM
same,IC50,second compound 0.1 µM,> 100 nM
same,IC50,second compound 0.316 µM,> 100 nM
same,IC50,second compound 1 µM,> 100 nM
same,IC50,second compound 3.16 µM,> 100 nM
same,IC50,second compound 10 µM,< 0.316 nM
same,"viability, T/C","second compound 0.0316 µM, first compound 0.000316 µM",88%
same,"viability, T/C","second compound 0.0316 µM, first compound 0.001 µM",82.3%
same,"viability, T/C","second compound 0.0316 µM, first compound 0.00316 µM",81.4%
same,"viability, T/C","second compound 0.0316 µM, first compound 0.01 µM",84.3%
same,"viability, T/C","second compound 0.0316 µM, first compound 0.0316 µM",88.5%
same,"viability, T/C","second compound 0.0316 µM, first compound 0.1 µM",80.5%
same,"viability, T/C","second compound 0.1 µM, first compound 0.000316 µM",94.4%
same,"viability, T/C","second compound 0.1 µM, first compound 0.001 µM",85.5%
same,"viability, T/C","second compound 0.1 µM, first compound 0.00316 µM",95.6%
same,"viability, T/C","second compound 0.1 µM, first compound 0.01 µM",82.7%
same,"viability, T/C","second compound 0.1 µM, first compound 0.0316 µM",87.7%
same,"viability, T/C","second compound 0.1 µM, first compound 0.1 µM",76.9%
same,"viability, T/C","second compound 0.316 µM, first compound 0.000316 µM",88.1%
same,"viability, T/C","second compound 0.316 µM, first compound 0.001 µM",81.7%
same,"viability, T/C","second compound 0.316 µM, first compound 0.00316 µM",77.9%
same,"viability, T/C","second compound 0.316 µM, first compound 0.01 µM",85%
same,"viability, T/C","second compound 0.316 µM, first compound 0.0316 µM",80%
same,"viability, T/C","second compound 0.316 µM, first compound 0.1 µM",80.2%
same,"viability, T/C","second compound 1 µM, first compound 0.000316 µM",75.3%
same,"viability, T/C","second compound 1 µM, first compound 0.001 µM",72.5%
same,"viability, T/C","second compound 1 µM, first compound 0.00316 µM",73.8%
same,"viability, T/C","second compound 1 µM, first compound 0.01 µM",71.9%
same,"viability, T/C","second compound 1 µM, first compound 0.0316 µM",71.9%
same,"viability, T/C","second compound 1 µM, first compound 0.1 µM",68.4%
same,"viability, T/C","second compound 3.16 µM, first compound 0.000316 µM",59.3%
same,"viability, T/C","second compound 3.16 µM, first compound 0.001 µM",58.6%
same,"viability, T/C","second compound 3.16 µM, first compound 0.00316 µM",59.3%
same,"viability, T/C","second compound 3.16 µM, first compound 0.01 µM",58.6%
same,"viability, T/C","second compound 3.16 µM, first compound 0.0316 µM",60.1%
same,"viability, T/C","second compound 3.16 µM, first compound 0.1 µM",56.1%
same,"viability, T/C","second compound 10 µM, first compound 0.000316 µM",45.1%
same,"viability, T/C","second compound 10 µM, first compound 0.001 µM",48.8%
same,"viability, T/C","second compound 10 µM, first compound 0.00316 µM",51.6%
same,"viability, T/C","second compound 10 µM, first compound 0.01 µM",49.1%
same,"viability, T/C","second compound 10 µM, first compound 0.0316 µM",52.3%
same,"viability, T/C","second compound 10 µM, first compound 0.1 µM",52.6%
